This series can be described thus: Lethal dose against HeLa cells, from a human cervix epitheloid carcinoma. It counts as toxicity, cell-based. The settings on record: read-out: LD50 (the source's name).

The structures appear in SMILES notation.

Take `CCN(CCNC)CCNC[C@H](O)[C@@H](O)[C@H](O[C@@H]1O[C@H](CO)C(O)[C@H](O)[C@H]1O)[C@H](O)CO` (stereo partly specified) [GLYCOSYLATED PEI]: the CC50 was more than 300 µM.
